Results published in patent US4138491A, “Method for treating diabetes” (Daiichi Seiyaku Co., Ltd., priority 1976, dated 1979).

Columns and labels:
[1] = system: blood sugar level; test: Glucose tolerance test in normal rats (oral compound, glucose load 1 hour later); type: in vivo, normal rat
Experimental: (§1) One index for the treatment of diabetes is to improve this glucose tolerance. The compound of the present invention was orally administered to normal rats, Streptozotocin-induced mildly diabetic rats and AYKK-mice, and thereafter glucose was administered intraperitoneally 1 hour later, and the glucose tolerance was examined. […] Further, a lowering of blood sugar in the glucose tolerance test using normal rats was examined with the passage of time, and the results obtained are given in Table 1 below.
(§2) A sample aqueous solution or suspension was orally administered to the test animals which had been fasted for 24 hours and one hour later glucose was intraperitoneally or subcutaneously administered to the test animals. Thereafter, blood was sampled from the tail vein with the passage of time in order to determine the blood sugar level by the glucose-oxidase method.

[2] = system: blood sugar level; test: Blood sugar lowering activity, fasted rat; type: in vivo
Experimental: (§3) The compounds of the present invention were orally administered to normal rats, mice, dogs and hereditary diabetic mice(AYKK-mice), and the blood sugar lowering activity was examined.
(§4) Test animals which were used included animals which had been fasted for 24 hours to achieve an empty stomach, and animals which had been fed to achieve a full stomach without any restriction of diet. A sample aqueous solution or suspension was orally administered, and blood was sampled with the passage of time from the tail vein or the cephalic vein in order to determine the level of blood sugar by the glucose-oxidase method.

[3] = system: blood sugar level; test: Blood sugar lowering activity, fed mouse; type: in vivo; conditions: 25 mg/kg PO
Experimental: as §3, §4

[4] = system: blood sugar level; test: Blood sugar lowering activity, fasted beagle; type: in vivo, beagle dog; conditions: 25 mg/kg PO
Experimental: as §3, §4

[5] = system: blood sugar level; test: Blood sugar lowering activity, fed AγKK (AYKK) mouse, hereditary diabetic; type: in vivo; conditions: fed AγKK mouse
Experimental: as §3, §4

[6] = system: blood sugar level; test: Glucose tolerance test in streptozotocin-induced mildly diabetic rats; type: in vivo, rat (Wistar strain); conditions: 10 mg/kg PO; glucose 1 g/kg; sum of increments at 15, 30, 60, 90 min vs control; 100 = no improvement
Experimental: as §1, §2
*4The streptozotocin-induced mildly diabetic rats were produced by […]

[7] = system: blood sugar level; test: Glucose tolerance test in AYKK mice; type: in vivo, AYKK mouse; conditions: 25 mg/kg PO; glucose 1 g/kg; sum of increments at 15, 30, 60, 90 min vs control; 100 = no improvement
Experimental: as §1, §2
*5AYKK-mouse was obtained by mating a yellow mouse having symptoms of […]

[8] = system: blood insulin; test: Insulin releasing action, fed rats; type: in vivo, rat; conditions: 25 mg/kg iv
Experimental: (§5) Among the test animals fed rats were anesthetized by administration of pentobarbital (40 mg/kg, ip), and administered, intravenously with an isotonic sodium chloride solution of Compound A. An aqueous solution of the sample was orally administered to fed mice. In both cases blood was sampled from the tail vein with the passage of time, and the blood insulin was determined by the radioimmunoassay method of Morgen et al [Diabetes, Vol. 12, pp 115 (1963)]. At the same time blood sugar was also determined. […] The amount of insulin released in Table 4 was obtained by determining the difference between the blood insulin level at 5 points (5, 10, 20, 30, 40 minutes) during a 40 minute period after administration of the sample in the case of rats or 3 points (0.5, 1.0, 2.0 hours) during a 2 hour period after administration of the sample in the case of mice and the blood insulin level at 0 minute just before administration of the sample and then by summing up these differences.

[9] = system: blood insulin; test: Insulin releasing action, fed mice; type: in vivo, mouse; conditions: fed mice, 25 mg/kg po
Experimental: as §5

[10] = system: serum lactate level; test: Influence on serum lactate level, repeated administration for 4 days; type: in vivo, normal rat; conditions: Compound A 200 mg/kg/day (phenformin dose not given)
Experimental: The biguanide drugs heretofore used as a treatment for diabetes are said undesirably to cause acidosis due to an increase of serum lactate level when such drugs are repeatedly administered. The compounds of the present invention were repeatedly administered for 4 days to normal rats and the serum lactate level was determined every day to compare such with the administration of phenformine which is one example of a biguanide drug.
Compound A was repeatedly administered for 4 days to normal rats in a dosage of 200 mg/kg/day, and blood was sampled with the passage of time in order to determine the serum lactate level.

[11] = system: blood platelet aggregation induced by collagen in rat platelet rich plasma; test: Blood platelet aggregation inhibiting activity (collagen induced, in vitro); type: cell-based; conditions: read-out: Platelet Aggregation Inhibition Activity, ID50
Experimental: It is generally said that blood platelet aggregability is accelerated in a diabetes patient and that this secondarily causes blood vessel disorders. […] Thus, based on this the compounds of the present invention are expected to be useful in preventing and improving the secondary vasular lesions of diabetes mellitus.
Citrated rat blood was centrifuged in order to obtain platelet rich plasma, and to 0.4 ml of this plasma was added 50 μl of sample solution. To the resulting solution was added 50 μl of collagen suspension under stirring, and platelet aggregation reaction was determined according to the method of Born [Nature, Vol. 194, pp. 927 (1962)]. The concentration of the sample (ID50) which inhibits 50% of the aggregation reaction of the control without the test sample added is shown in Table 6 below.

[12] = Acute toxicity (rat); conditions: in vivo, read-out: Acute Toxicity (rat) ID50

c1ccc(C(CC2=NCCN2)c2ccccc2)cc1 [Compound A, 2-(2,2-diphenyl)ethylimidazoline]
Glucose Tolerance Improving Activity ([1]; 10 mg/kg PO, glucose 2 g/kg, sum of increments at 15, 30, 60, 90 min vs control, 100 = no improvement): 15.7%
Blood Glucose Level, 0 min ([1]; 10 mg/kg, glucose 2 g/kg, 0 min): 72 ± 3 mg/dL
Blood Glucose Level, 15 min ([1]; 10 mg/kg, glucose 2 g/kg, 15 min): 83 ± 6 mg/dL
Blood Glucose Level, 30 min ([1]; 10 mg/kg, glucose 2 g/kg, 30 min): 87 ± 4 mg/dL
Blood Glucose Level, 60 min ([1]; 10 mg/kg, glucose 2 g/kg, 60 min): 76 ± 3 mg/dL
Blood Glucose Level, 90 min ([1]; 10 mg/kg, glucose 2 g/kg, 90 min): 68 ± 4 mg/dL
Blood Glucose Level, before glucose load (-60 min.) ([1]; 10 mg/kg, glucose 2 g/kg, -60 min): 84 ± 1 mg/dL
blood sugar level maintained after glucose load ([1]; normal rats, Table 1, in words): maintains the blood sugar level in the range of the fasting blood sugar level
rise in blood sugar level due to the glucose load ([1]; normal rats, Table 1, in words): scarcely any rise in blood sugar level
Blood Sugar Level (control = 100), 1 Hr ([2]; 10 mg/kg PO): 76%
Blood Sugar Level (control = 100), 2 Hrs ([2]; 10 mg/kg PO): 71%
Blood Sugar Level (control = 100), 3 Hrs ([2]; 10 mg/kg PO): 71%
Blood Sugar Level (control = 100), 5 Hrs ([2]; 10 mg/kg PO): 65%
Blood Sugar Level (control = 100), 1 Hr ([2]; 25 mg/kg PO): 72%
Blood Sugar Level (control = 100), 2 Hrs ([2]; 25 mg/kg PO): 67%
Blood Sugar Level (control = 100), 3 Hrs ([2]; 25 mg/kg PO): 57%
Blood Sugar Level (control = 100), 5 Hrs ([2]; 25 mg/kg PO): 67%
Blood Sugar Level (control = 100), 1 Hr ([3]; 1 h): 54%
Blood Sugar Level (control = 100), 2 Hrs ([3]; 2 h): 67%
Blood Sugar Level (control = 100), 3 Hrs ([3]; 3 h): 65%
Blood Sugar Level (control = 100), 5 Hrs ([3]; 5 h): 76%
Blood Sugar Level (control = 100), 1 Hr ([4]; 1 h): 70%
Blood Sugar Level (control = 100), 2 Hrs ([4]; 2 h): 66%
Blood Sugar Level (control = 100), 3 Hrs ([4]; 3 h): 64%
Blood Sugar Level (control = 100), 1 Hr ([5]; 10 mg/kg PO): 72%
Blood Sugar Level (control = 100), 2 Hrs ([5]; 10 mg/kg PO): 71%
Blood Sugar Level (control = 100), 3 Hrs ([5]; 10 mg/kg PO): 62%
Blood Sugar Level (control = 100), 5 Hrs ([5]; 10 mg/kg PO): 63%
Blood Sugar Level (control = 100), 1 Hr ([5]; 25 mg/kg PO): 44%
Blood Sugar Level (control = 100), 2 Hrs ([5]; 25 mg/kg PO): 46%
Blood Sugar Level (control = 100), 3 Hrs ([5]; 25 mg/kg PO): 41%
Blood Sugar Level (control = 100), 5 Hrs ([5]; 25 mg/kg PO): 49%
Glucose Tolerance Improving Activity [6]: 25.2%
Glucose Tolerance Improving Activity [7]: 52.5%
Blood Sugar Level ([8]; after 90 minutes, control = 100): 62%
Amount of Insulin Released ([8]; sum of differences at 5, 10, 20, 30, 40 min): 250±15 μunit/ml
Blood Sugar Level ([9]; after 2 hours, control = 100): 69.8%
Amount of Insulin Released ([9]; sum of differences at 0.5, 1.0, 2.0 hours): 57±14.2 μunit/ml
Serum Lactate Level, 0 Day ([10]; 0 Day): 0.993±0.051 μ mol/ml
Serum Lactate Level, After 1 Day ([10]; After 1 Day): 1.386±0.073 μ mol/ml
Serum Lactate Level, After 4 Days ([10]; After 4 Days): 1.125±0.113 μ mol/ml
IC50 [11]: 70 µM
LD50 [12]: 562 mg/kg
